This note sets out measurements from US20200093801A1, “NEW METHODS FOR THE TREATMENT OF MULTIPLE SCLEROSIS” (Novartis AG, priority 2017, published 2020).

Molecules are shown by their SMILES. Entries after “also recorded” stand apart in the source; their conditions may differ.

The subject of this assay is microglia. In words: Microglia depletion and activation in naive/wildtype mice after 5 days of treatment (Iba1 histology). It is filed as in vivo. As for the experimental part:
After fixation brains were processed for paraffin embedding by dehydration through increasing ethanol series. Automated immunohistochemistry of paraffin sections was performed on 3 μm paraffin sections mounted on SuperFrost+slides (Thermo Fisher Scientific) and automatically immunostained using the Discovery XT technology (Ventana, Roche Diagnostics). Sections were deparaffinized, rehydrated, subjected to antigen retrieval by heating with CC1 cell conditioning buffer for 28-68 min according to the antibody, incubated for 1-3 hours according to the antibody at room temperature with primary antibody diluted in antibody diluent (Ventana), incubated with the respective biotinylated secondary antibody diluted in antibody diluent, reacted with DABMab kit and counterstained with Hematoxylin II and Bluing reagent (Ventana). Slides were washed with soap in hot tap water and rinsed under cold running tap water to remove the soap, then dehydrated and embedded with Pertex.
Secondary detection antibodies are: Goat anti-rabbit IgG biotinylated (Jackson ImmunoResearch 111-065-144) 1:1000; Goat anti-rabbit IgG biotinylated (Vector BA-1000) 1:200 or 1:1000
For the quantitative evaluation of microglia/astrocyte numbers based on image analysis from histological stained brain sections, a proprietary image analysis platform (ASTORIA, Automated Stored Image Analysis) was developed based on MS Visual Studio 2010 and many functions from Matrox MIL V9 libraries (Matrox Inc, Quebec, Canada).
For the detection and analysis of soma the following sequence of steps was performed: 1. Slides with brain sections for assessment of (brown) IHC stained microglia (Iba1) or astrocyte (GFAP) were scanned with Aperio's Scanscope at 20× magnification. 2. Ran the in-house developed ImageScope (V12.1.0.5029, Aperio Inc., USA) plug-in for creation and export of 3×8-bit RGB tif image tiles (at 20× magnification) for each section. 3. Image processing (for each tif image): A: Performed color deconvolution on each tif image to obtain brown stained image without blue. B: Segmentation of valid sample (brain tissue) from white background through thresholding, morphological closing, filling of holes, opening and elimination of too small objects, resulting in a binary mask of the valid tissue and sample area for the current image. C: Applied an adaptive thresholding technique for the individual segmentation of soma, based on the average gray value of the blue channel of the color-deconvoluted brown image at sufficiently dark regions (indicative for soma). The computed threshold was used for binarization, and after size filtering yielding the soma mask image (within the valid sample region).
FIG. 10: BLZ945 treatment leads to microglia depletion and microglia activation in a dose-dependent manner. […]

The mark [1] stands for this setting: 20 mg/kg p.o. qd, naive/wildtype mice.

Consider `CNC(=O)c1cc(Oc2ccc3nc(N[C@@H]4CCCC[C@H]4O)sc3c2)ccn1` [BLZ945, 4-(2-((1R,2R)-2-hydroxycyclohexylamino)benzothiazol-6-yloxy)-N-methylpicolinamide], for which, under setting [1], the “Microglia activation (Iba1-positive microglia size normalized to distal microglia processes), cortex” value was “only mildly; also recorded: slight increase in the activation status” and the “Microglia depletion (Iba1-positive microglia numbers), cortex” value is recorded as “no microglia depletion; also recorded: no microglia reduction”. Also, where the note is “60 mg/kg p.o. qd, naive/wildtype mice”, the “Microglia activation (Iba1-positive microglia size normalized to distal microglia processes), cortex” value is “strong microglia activation; also recorded: substantially enhanced the morphological activation status; also recorded: altered microglia morphology”. Further, the Microglia depletion entry (169 mg/kg p.o. qd, naive animals, all brain areas) is reported as “almost completely depletes microglia; also recorded: near complete microglia depletion”.
